This note sets out measurements from patent publication US11970499B1, “Pyrazolo[1,5-c]pyrimidine compounds as CK2 inhibitors” (KING FAISAL UNIVERSITY, priority 2023, dated 2024).

For one experiment, the system named is PC3 (prostate). Briefly: MTT in vitro cytotoxic activity assay, PC3. In kind it is cell-based. The conditions noted are these: Homo sapiens, PC-3; PC3 cells, exposed for 96 hours; read-out: Cytotoxicity activity IC50, PC3 (prostate). Here is the method:
(§1) Compounds 1-20 were screened for their in vitro cytotoxic activity utilizing a 3-(4,5-dimethyl-thiazol-2-yl)-2,5-diphenyltetrazolium bromide (MTT) assay against selected cancer human cell lines consisting of PC3 (prostate), HCT 116 (colon), A375 (melanoma), H1299 (lung), MIAPaCa-2 (pancreas), HL60 (leukemia), MCF7 (breast), MDA-MB-231 (breast) (T. Mosmann, J. Immunol. Meth., 1983, 65, 55-63). The cells were cultured at 37° C. in RMPI1640 medium supplemented with 10% fetal bovine serum, 50 IU/mL penicillin, and 50 μg/mL streptomycin in a 5% CO2 incubator. All cells were sub-cultured 3 times/week by trypsinisation. Viable cells were seeded and allowed to adhere for 12 h before a test drug was added in 96-well plates at an initial density of 1.0×10^5 cells/mL. Tumor cell lines were separately exposed to various concentrations of the tested compounds followed by incubation at a temperature of 37° C. during 96 hours inside a medium of fresh RMPI 1640. Cells were subsequently incubated at 37° C. using MTT at 0.5 mg/mL during 4 hours. After removal of supernatant, formazan crystals were dissolved in isopropanol and the optical density was measured at 570 nm. CX-4945 was used as a positive control.

The next experiment concerns HCT116 (colon). Put plainly: MTT in vitro cytotoxic activity assay, HCT116. The conditions noted are these: Homo sapiens, HCT-116; HCT116 cells, exposed for 96 hours; read-out: Cytotoxicity activity IC50, HCT116 (colon). In kind it is cell-based. How it is done: as §1
For a further experiment, the system named is A375 (melanoma). Briefly: MTT in vitro cytotoxic activity assay, A375. The format is cell-based. The note with it: Homo sapiens, A-375; A375 cells, exposed for 96 hours; read-out: Cytotoxicity activity IC50, A375 (melanoma). How it is done:
as §1

A further experiment concerns H1299 (lung). Put plainly: MTT in vitro cytotoxic activity assay, H1299. In kind it is cell-based. The note with it: Homo sapiens, NCI-H1299; H1299 cells, exposed for 96 hours; read-out: Cytotoxicity activity IC50, H1299 (lung). Here is the method:
as §1

A further experiment relates to MIAPaCa-2 (pancreas). Put plainly: MTT in vitro cytotoxic activity assay, MIAPaCa-2. In kind it is cell-based. The conditions noted are these: Homo sapiens, MIA PaCa-2; MIAPaCa-2 cells, exposed for 96 hours; read-out: Cytotoxicity activity IC50, MIAPaCa-2 (pancreas). Here is the method:
as §1

The subject of a further experiment is HL60 (leukemia). Briefly: MTT in vitro cytotoxic activity assay, HL60. The format is cell-based. The note with it: Homo sapiens, HL-60; HL60 cells, exposed for 96 hours; read-out: Cytotoxicity activity IC50, HL60 (leukemia). How it is done: as §1
The subject of another experiment is MCF7 (breast). Briefly: MTT in vitro cytotoxic activity assay, MCF7. In kind it is cell-based. The note with it: Homo sapiens; MCF7 cells, exposed for 96 hours; read-out: Cytotoxicity activity IC50, MCF7 (breast). How it is done: as §1
For the next experiment, the system named is MDA-MB-231 (breast). Put plainly: MTT in vitro cytotoxic activity assay, MDA-MB-231. The format is cell-based. The conditions noted are these: Homo sapiens; MDA-MB-231 cells, exposed for 96 hours; read-out: Cytotoxicity activity IC50, MDA-MB-231 (breast). How it is done:
as §1

The next experiment deals with T1, recombinant human CK2 (Homo sapiens, UniProt P68400).
T1 construct: purchased Millipore
T1 sequence (P68400 whole entry): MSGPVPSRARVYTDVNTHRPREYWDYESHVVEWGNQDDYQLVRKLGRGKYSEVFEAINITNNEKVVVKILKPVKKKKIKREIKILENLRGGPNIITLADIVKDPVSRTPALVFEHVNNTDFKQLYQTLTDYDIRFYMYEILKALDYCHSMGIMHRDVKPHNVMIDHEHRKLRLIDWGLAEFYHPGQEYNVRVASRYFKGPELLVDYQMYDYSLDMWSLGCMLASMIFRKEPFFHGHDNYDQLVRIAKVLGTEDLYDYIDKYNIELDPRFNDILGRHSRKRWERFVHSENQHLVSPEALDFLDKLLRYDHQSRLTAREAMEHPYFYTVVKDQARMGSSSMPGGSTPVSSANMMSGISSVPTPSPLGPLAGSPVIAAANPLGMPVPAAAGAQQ
T1 sequence (P67870 whole entry partner): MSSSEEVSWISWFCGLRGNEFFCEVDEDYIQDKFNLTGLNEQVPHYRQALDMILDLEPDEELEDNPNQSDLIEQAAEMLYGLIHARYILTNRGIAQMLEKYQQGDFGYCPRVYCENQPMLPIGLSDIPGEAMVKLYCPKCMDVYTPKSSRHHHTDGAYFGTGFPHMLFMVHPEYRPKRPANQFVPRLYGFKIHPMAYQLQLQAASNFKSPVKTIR
Put plainly: CK2 Kinase Assay (33P-ATP, substrate peptide RRRDDDSDDD). The conditions noted are these: recombinant human CK2 holoenzyme, final ATP 15 μM, 10 min at 30° C.; read-out: protein kinase CK2 activity IC50. The format is biochemical. Here is the method:
CK2 Kinase Assay was conducted using the protocol as described in Pierre F. et al; J. Med. Chem. 2011, 54, 635-654. The tested compounds in aqueous solution were added at a volume of 10 μL to a reaction mixture comprising 10 μL of assay dilution buffer (ADB; 20 mM MOPS, pH 7.2, 25 mM β-glycerol phosphate, 5 mM EGTA, 1 mM sodium orthovanadate, and 1 mM dithiothreitol), 10 μL of substrate peptide (RRRDDDSDDD, dissolved in ADB at a concentration of 1 mM), 10 μL of recombinant human CK2 (RRββ-holoenzyme, 25 ng dissolved in ADB; Millipore). Reactions were initiated by the addition of 10 μL of ATP solution (90% 75 mMMgCl2, 75 sM ATP (final ATP concentration:15 μM) dissolved in ADB; 10% [γ-^33P] ATP (stock 1 mCi/100 μL; 3000 Ci/mmol (Perkin-Elmer) and maintained for 10 min at 30° C. The reactions were quenched with 100 μL of 0.75% phosphoric acid and then transferred to and filtered through a phosphor cellulose filter plate (Millipore). After washing each well five times with 0.75% phosphoric acid, the plate was dried under vacuum for 5 min and, following the addition of 15 μL of scintillation fluid to each well, the residual radioactivity was measured using a Wallac luminescence counter. The IC50 values were derived from eight concentrations of test inhibitors.

Broadly, the IC50 is the point on the concentration scale where inhibition reaches its midpoint. For `Clc1cccc(Nc2c(-c3ccncn3)nn3cnccc23)c1` [Compound 13, N-(3-chlorophenyl)-2-(pyrimidin-4-yl)pyrazolo[1,5-c]pyrimidin-3-amine], the half-maximal inhibitory concentration (IC50) worked out at 1200 nM with PC3 (prostate); 2100 nM with HCT116 (colon); 3400 nM in the experiment with A375 (melanoma); 1600 nM in the experiment on H1299 (lung); 1500 nM in the experiment on MIAPaCa-2 (pancreas); 3900 nM in the experiment with HL60 (leukemia). Moreover, the IC50 in the experiment on MCF7 (breast) stood at 5500 nM; with MDA-MB-231 (breast) it was 4600 nM; on recombinant human CK2 it was 110 nM.
